Test results from ChEMBL document CHEMBL1909046, “DrugMatrix in vitro pharmacology data”.

What was measured:
[1] = DRUGMATRIX: Platelet-Derived Growth Factor (PDGF) radioligand binding (ligand: [125I] PDGF); type: cell-based; conditions: nih3t3; Not Active = under 50% inhibition at 10 µM
Melanocortin receptor 3 = Melanocortin receptor 3 (Homo sapiens, UniProt P41968); type: cell membranes, Membrane; conditions: hek293; note: in other assays of this panel Not Active means under 50% inhibition at 10 µM
Melanocortin receptor 3, sequence (P41968 whole entry): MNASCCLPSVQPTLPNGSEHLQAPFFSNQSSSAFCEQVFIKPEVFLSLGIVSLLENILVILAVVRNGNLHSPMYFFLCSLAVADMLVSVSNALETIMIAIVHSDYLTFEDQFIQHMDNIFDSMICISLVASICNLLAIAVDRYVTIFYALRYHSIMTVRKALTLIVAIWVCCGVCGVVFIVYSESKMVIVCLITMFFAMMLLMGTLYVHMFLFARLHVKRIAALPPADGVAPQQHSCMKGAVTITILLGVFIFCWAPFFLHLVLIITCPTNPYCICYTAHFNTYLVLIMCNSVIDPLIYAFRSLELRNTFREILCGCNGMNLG

Glycine receptor = Glycine receptor (Rattus norvegicus, UniProt P22771+P24524+P07727+P20781); type: cell membranes, Wistar, Spinal cord, Membrane; note: in other assays of this panel Not Active means under 50% inhibition at 10 µM
[2] = DRUGMATRIX: Glutamate, NMDA, Agonism radioligand binding (ligand: [3H] CGP-39653); type: cell membranes, Rattus norvegicus, Wistar, Cerebral cortex, Membrane; conditions: Not Active = under 50% inhibition at 10 µM
[3] = target: 5-hydroxytryptamine receptor 4 (Cavia porcellus, UniProt O70528); type: cell membranes, Dunkin-Hartley, Striatum, Membrane; note: in other assays of this panel Not Active means under 50% inhibition at 10 µM
5-hydroxytryptamine receptor 4, sequence (O70528 whole entry): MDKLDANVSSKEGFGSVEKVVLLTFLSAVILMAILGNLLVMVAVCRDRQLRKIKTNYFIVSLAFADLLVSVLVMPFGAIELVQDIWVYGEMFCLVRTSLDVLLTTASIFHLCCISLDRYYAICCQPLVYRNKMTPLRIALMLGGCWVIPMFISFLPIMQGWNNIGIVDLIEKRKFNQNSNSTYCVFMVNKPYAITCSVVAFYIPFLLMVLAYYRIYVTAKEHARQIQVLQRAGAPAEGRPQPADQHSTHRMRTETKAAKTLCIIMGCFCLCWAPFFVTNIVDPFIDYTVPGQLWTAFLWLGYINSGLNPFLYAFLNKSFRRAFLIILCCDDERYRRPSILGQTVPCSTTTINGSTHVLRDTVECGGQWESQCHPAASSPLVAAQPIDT

Estrogen receptor beta = Estrogen receptor beta (Homo sapiens, UniProt Q92731); conditions: sf9; note: in other assays of this panel Not Active means under 50% inhibition at 10 µM
Estrogen receptor beta, sequence (Q92731 whole entry): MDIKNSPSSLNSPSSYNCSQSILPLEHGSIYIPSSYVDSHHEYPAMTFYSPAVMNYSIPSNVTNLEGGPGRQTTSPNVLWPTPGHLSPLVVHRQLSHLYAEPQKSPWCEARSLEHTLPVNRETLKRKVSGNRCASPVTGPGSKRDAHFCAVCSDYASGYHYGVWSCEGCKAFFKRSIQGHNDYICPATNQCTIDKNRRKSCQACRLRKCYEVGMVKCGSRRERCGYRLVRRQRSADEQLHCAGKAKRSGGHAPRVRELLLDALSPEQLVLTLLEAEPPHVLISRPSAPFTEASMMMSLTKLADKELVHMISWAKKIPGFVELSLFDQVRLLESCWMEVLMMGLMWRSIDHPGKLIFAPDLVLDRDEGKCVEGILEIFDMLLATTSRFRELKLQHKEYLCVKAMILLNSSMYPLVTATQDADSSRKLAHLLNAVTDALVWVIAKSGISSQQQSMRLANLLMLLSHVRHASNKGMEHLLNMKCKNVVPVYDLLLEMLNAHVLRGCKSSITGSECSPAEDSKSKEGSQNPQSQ

[4] = DRUGMATRIX: GABAA, Muscimol, Central radioligand binding (ligand: [3H] Muscimol); type: cell membranes, Rattus norvegicus, Wistar, Brain, Membrane; conditions: Not Active = under 50% inhibition at 10 µM
[5] = DRUGMATRIX: Sigma2 radioligand binding (ligand: [3H] Ifenprodil); type: cell membranes, Rattus norvegicus, Wistar, Brain, Membrane; conditions: Not Active = under 50% inhibition at 10 µM

O=C(c1ccccc1Cl)N1CCC(Cc2ccccc2)CC1
Not Active: IC50 [1] | Ki [1] | IC50 (Melanocortin receptor 3) | IC50 (Glycine receptor) | IC50 [2] | Ki [2] | IC50 [3] | IC50 (Estrogen receptor beta) | IC50 [4] | Ki [4] | IC50 [5] | Ki [5]

Cc1c(F)c(N2CCNC(C)C2)cc2c1c(=O)c(C(=O)O)cn2C1CC1 (stereo unspecified) [GREPAFLOXACIN]
Not Active: IC50 [1] | Ki [1] | IC50 (Melanocortin receptor 3) | IC50 (Glycine receptor) | IC50 [2] | Ki [2] | IC50 [3] | IC50 (Estrogen receptor beta) | IC50 [4] | Ki [4] | IC50 [5] | Ki [5]

CC(C(=O)O)c1ccc(-c2ccccc2)c(F)c1 (stereo unspecified) [FLURBIPROFEN]
Not Active: IC50 [1] | Ki [1] | IC50 (Melanocortin receptor 3) | IC50 (Glycine receptor) | IC50 [2] | Ki [2] | IC50 [3] | IC50 (Estrogen receptor beta) | IC50 [4] | Ki [4] | IC50 [5] | Ki [5]

COC(=O)c1ccccc1O [METHYL SALICYLATE]
Not Active: IC50 [1] | Ki [1] | IC50 (Melanocortin receptor 3) | IC50 (Glycine receptor) | IC50 [2] | Ki [2] | IC50 [3] | IC50 (Estrogen receptor beta) | IC50 [4] | Ki [4] | IC50 [5] | Ki [5]

O=C(O)c1cccnc1 [NIACIN]
Not Active: IC50 [1] | Ki [1] | IC50 (Melanocortin receptor 3) | IC50 (Glycine receptor) | IC50 [2] | Ki [2] | IC50 [3] | IC50 (Estrogen receptor beta) | IC50 [4] | Ki [4] | IC50 [5] | Ki [5]

CC[C@H](C)C(=O)O[C@H]1C[C@@H](C)C=C2C=C[C@H](C)[C@H](CC[C@@H]3C[C@@H](O)CC(=O)O3)[C@H]21 [LOVASTATIN]
Not Active: IC50 [1] | Ki [1] | IC50 (Melanocortin receptor 3) | IC50 (Glycine receptor) | IC50 [2] | Ki [2] | IC50 [3] | IC50 (Estrogen receptor beta) | IC50 [4] | Ki [4] | IC50 [5] | Ki [5]

COBALT(II) ACETYLACETONATE
Not Active: IC50 [1] | Ki [1] | IC50 (Melanocortin receptor 3) | Ki (Melanocortin receptor 3) | IC50 (Glycine receptor) | Ki (Glycine receptor) | IC50 [2] | Ki [2] | IC50 [3] | Ki [3] | IC50 (Estrogen receptor beta) | Ki (Estrogen receptor beta) | IC50 [4] | Ki [4] | IC50 [5] | Ki [5]

CN(C(=O)CCCOc1ccc2[nH]c(=O)ccc2c1)C1CCCCC1 [CILOSTAMIDE]
Not Active: IC50 [1] | Ki [1] | IC50 (Melanocortin receptor 3) | IC50 (Glycine receptor) | IC50 [2] | Ki [2] | IC50 [3] | IC50 (Estrogen receptor beta) | IC50 [4] | Ki [4] | IC50 [5] | Ki [5]

INSULIN HUMAN
Not Active: IC50 [1] | Ki [1] | IC50 (Melanocortin receptor 3) | Ki (Melanocortin receptor 3) | IC50 (Glycine receptor) | Ki (Glycine receptor) | IC50 [2] | Ki [2] | IC50 [3] | Ki [3] | IC50 (Estrogen receptor beta) | Ki (Estrogen receptor beta) | IC50 [4] | Ki [4] | IC50 [5] | Ki [5]

O=C(O)c1cc(=O)c2c(OCC(O)COc3cccc4oc(C(=O)O)cc(=O)c34)cccc2o1 [CROMOLYN]
Not Active: IC50 [1] | Ki [1] | IC50 (Melanocortin receptor 3) | IC50 (Glycine receptor) | IC50 [2] | Ki [2] | IC50 [3] | IC50 (Estrogen receptor beta) | IC50 [4] | Ki [4] | IC50 [5] | Ki [5]

Cc1cccc(Nc2cc(Cl)nc(SCC(=O)O)n2)c1C [PIRINIXIC ACID]
Not Active: IC50 [1] | Ki [1] | IC50 (Melanocortin receptor 3) | IC50 (Glycine receptor) | IC50 [2] | Ki [2] | IC50 [3] | IC50 (Estrogen receptor beta) | IC50 [4] | Ki [4] | IC50 [5] | Ki [5]

CCc1oc2ccccc2c1C(=O)c1cc(Br)c(O)c(Br)c1 [BENZBROMARONE]
Not Active: IC50 [1] | Ki [1] | IC50 (Melanocortin receptor 3) | IC50 (Glycine receptor) | IC50 [2] | Ki [2] | IC50 [3] | IC50 (Estrogen receptor beta) | IC50 [4] | Ki [4] | IC50 [5] | Ki [5]

CC[C@]1(O)CC[C@H]2[C@@H]3CCC4=CCCC[C@@H]4[C@H]3CC[C@@]21C
Not Active: IC50 [1] | Ki [1] | IC50 (Melanocortin receptor 3) | IC50 (Glycine receptor) | IC50 [2] | Ki [2] | IC50 [3] | IC50 (Estrogen receptor beta) | IC50 [4] | Ki [4] | IC50 [5] | Ki [5]

CC(C)(Oc1ccc(C2CC2(Cl)Cl)cc1)C(=O)O (stereo unspecified) [CIPROFIBRATE]
Not Active: IC50 [1] | Ki [1] | IC50 (Melanocortin receptor 3) | IC50 (Glycine receptor) | IC50 [2] | Ki [2] | Ki [3] | IC50 (Estrogen receptor beta) | IC50 [4] | Ki [4] | IC50 [5] | Ki [5]

CO[C@H]1[C@@H](O)[C@H](N)[C@@H](O[C@H]2O[C@H]([C@H](C)N)CC[C@H]2N)[C@H](O)[C@@H]1N(C)C(=O)CN [ASTROMICIN]
Not Active: IC50 [1] | Ki [1] | IC50 (Melanocortin receptor 3) | IC50 (Glycine receptor) | IC50 [2] | Ki [2] | IC50 [3] | IC50 (Estrogen receptor beta) | IC50 [4] | Ki [4] | IC50 [5] | Ki [5]

Clc1cc2c(cc1Cl)Oc1cc(Cl)c(Cl)cc1O2 [2,3,7,8-TETRACHLORODIBENZO-P-DIOXIN]
Not Active: IC50 [1] | Ki [1] | IC50 (Melanocortin receptor 3) | IC50 (Glycine receptor) | IC50 [2] | Ki [2] | IC50 [3] | IC50 (Estrogen receptor beta) | IC50 [4] | Ki [4] | IC50 [5] | Ki [5]

CNC(=C[N+](=O)[O-])NCCSCc1csc(CN(C)C)n1 [NIZATIDINE]
Not Active: IC50 [1] | Ki [1] | IC50 (Melanocortin receptor 3) | IC50 (Glycine receptor) | IC50 [2] | Ki [2] | IC50 [3] | IC50 (Estrogen receptor beta) | IC50 [4] | Ki [4] | IC50 [5] | Ki [5]

COc1ccc2cc(CCC(C)=O)ccc2c1 [NABUMETONE]
Not Active: IC50 [1] | Ki [1] | IC50 (Melanocortin receptor 3) | IC50 (Glycine receptor) | IC50 [2] | Ki [2] | IC50 [3] | IC50 (Estrogen receptor beta) | IC50 [4] | Ki [4] | IC50 [5] | Ki [5]

CC(C(=O)O)c1ccc(CC2CCCC2=O)cc1 (stereo unspecified) [LOXOPROFEN]
Not Active: IC50 [1] | Ki [1] | IC50 (Melanocortin receptor 3) | IC50 (Glycine receptor) | IC50 [2] | Ki [2] | IC50 [3] | IC50 (Estrogen receptor beta) | IC50 [4] | Ki [4] | IC50 [5] | Ki [5]

CCCCCC[C@H]1C(=O)O[C@H](C)[C@H](NC(=O)c2cccc(NC=O)c2O)C(=O)O[C@@H](C)[C@@H]1OC(=O)CC(C)C [ANTIMYCIN A]
Not Active: IC50 [1] | Ki [1] | IC50 (Melanocortin receptor 3) | IC50 (Glycine receptor) | IC50 [2] | Ki [2] | IC50 [3] | IC50 (Estrogen receptor beta) | IC50 [4] | Ki [4] | IC50 [5] | Ki [5]

Cc1cnc(C(=O)NCCc2ccc(S(=O)(=O)NC(=O)NC3CCCCC3)cc2)cn1 [GLIPIZIDE]
Not Active: IC50 [1] | Ki [1] | IC50 (Melanocortin receptor 3) | IC50 (Glycine receptor) | IC50 [2] | Ki [2] | IC50 [3] | IC50 (Estrogen receptor beta) | IC50 [4] | Ki [4] | IC50 [5] | Ki [5]

COc1ccc(Cc2nccc3cc(OC)c(OC)cc23)cc1OC [PAPAVERINE]
Not Active: IC50 [1] | Ki [1] | IC50 (Melanocortin receptor 3) | IC50 (Glycine receptor) | IC50 [2] | Ki [2] | IC50 [3] | IC50 (Estrogen receptor beta) | IC50 [4] | Ki [4] | IC50 [5] | Ki [5]

O=c1cc(-c2ccccc2)oc2ccc3ccccc3c12 [BETA-NAPHTHOFLAVONE]
Not Active: IC50 [1] | Ki [1] | IC50 (Melanocortin receptor 3) | IC50 (Glycine receptor) | IC50 [2] | Ki [2] | IC50 [3] | IC50 (Estrogen receptor beta) | IC50 [4] | Ki [4] | IC50 [5] | Ki [5]

CC(=O)O[C@]1(C(C)=O)CC[C@H]2[C@@H]3C=C(Cl)C4=CC(=O)[C@@H]5C[C@@H]5[C@]4(C)[C@H]3CC[C@@]21C [CYPROTERONE ACETATE]
Not Active: IC50 [1] | Ki [1] | IC50 (Melanocortin receptor 3) | IC50 (Glycine receptor) | IC50 [2] | Ki [2] | IC50 [3] | IC50 (Estrogen receptor beta) | IC50 [4] | Ki [4] | IC50 [5] | Ki [5]
